How the values were obtained:
GAPDH = target: T1, GAPDH (Oryctolagus cuniculus, UniProt P46406); experiment: GAPDH protein S-persulfidation (SSP4 fluorescence, LC-MS/MS); assay type: biochemical, rabbit
T1 construct: GAPDH (from rabbit muscle, #G2267, Sigma-Aldrich); purchased Sigma-Aldrich G2267; host or cells: rabbit muscle (tissue-purified)
Method: One of the primary functions of H2S2 is to induce protein S-persulfidation. Existing methods treat proteins with Na2S2 directly to obtain the persulfidated proteins. The present disclosure contemplates the use of TTS and H2S to persulfidate proteins as a comparison with Na2S2. GAPDH was used as the protein model and its persulfidation was evaluated by SSP4 using a protocol described in Shieh, M. et al., Shining a light on SSP4: a comprehensive analysis and biological applications for the detection of sulfane sulfurs. Redox Biol. 2022, 56, 102433 and Ni, X. et al., A sweet H2S/H2O2 dual release system and specific protein S-persulfidation mediated by thioglucose/glucose oxidase. J. Am. Chem. Soc. 2021, 143, 13325-13332. Reduced GAPDH (100 μM) was individually treated with 10 eq. of TTS+Na2S or Na2S2, as well as control reagents (TTS or Na2S only). The protein samples were then purified using Zeba Spin Desalting Columns (7K MWCO), diluted (to 10 μM), and treated with SSP4 (5 μM). Fluorescence signals were recorded to reflect persulfidation levels. […] To provide further evidence of persulfidation in the GAPDH system, TTS+Na2S-treated GAPDH was alkylated with HPE-IAM to stabilize the protein persulfides.
216 μL of PBS (50 mM, pH 7.4) was added to 3.9 mg of GAPDH (from rabbit muscle, #G2267, Sigma-Aldrich) to obtain a concentration of 500 μM (MW: 36 kDa). DTT (10 mM in DMSO, 11.35 μL) was added for a final equal concentration with the GAPDH. The solution was incubated in the dark at room temperature for 30 min. Zeba 7K MWCO spin columns were prepared and used according to manufacturer's instructions with 3 PBS washes. Excess reductant was removed by column purification with the Zeba 7K MWCO columns. The resulting reduced protein concentration was determined by the absorbance at 280 nm (εmM=30.4 mM-1 cm-1) using the Nanodrop One Microvolume UV-Vis Spectrophotometer (ThermoFisher Scientific). For controls, reduced GAPDH was treated with NEM (1:5 equiv.) and incubated at rt in the dark for 30 min before excess NEM was removed by the Zeba 7K MWCO columns. Next, the reduced protein was diluted to a final concentration of 100 μM in a final volume of 100 μL and treated with TTS (10 μL of 10 mM in DMSO for a final concentration of 1 mM), Na2S (10 μL of 10 mM in MilliQ H2O for a final concentration of 1 mM), both TTS and Na2S, or Na2S2 (10 μL of 10 mM in MilliQ H2O for a final concentration of 1 mM). For example, if the reduced protein (361 μM) was only to be treated with TTS, 62.3 μL of PBS (50 mM, pH 7.4) would first be added to an Eppendorf tube, followed by 27.7 μL of protein, and followed by 10 μL of TTS. TTS+Na2S and Na2S2 samples were also prepared at the concentrations above without any protein, where PBS (50 mM, pH 7.4) was used in place of the proteins (volume-wise). Samples were incubated at room temperature for 30 min in the dark before being purified by Zeba 7K MWCO columns (three times to ensure proper removal of excess treatment molecules) and quantified by absorbance. […] All samples were then incubated with SSP4 (5 μL of 100 μM in DMSO for a final concentration of 5 μM) in individual wells of a black clear flat bottom 96-well plate. The final volume was 100 μL. For example, if the persulfidated protein (99.5 μM) was to be examined, 84.95 μL of PBS (50 mM, pH 7.4) would first be added to a well, followed by 10.05 μL of protein, and then followed by 5 μL of SSP4. Incubation occurred at room temperature in the dark for 30 min before being measured on the SpectraMax iD3 microplate reader (ex: 485 nm; em: 525 nm).

[1] = Monitoring H2S2 formation from the TTS-TAGDD hybrid compound 3 (SSP4, 12 h); conditions: 25 μM compound only, over 12 hours
Method: Monitoring H2S2 formation from the TTS-TAGDD hybrid compound 3: TTS and 3 were prepared as 1 mM solutions in DMSO. L-cysteine and Na2S2 were prepared at 4 mM and 1 mM in MilliQ H2O, respectively. SSP4 was dissolved in DMSO to obtain a 200 μM stock solution. CTAB was dissolved in ethanol to yield a 2 mM stock solution. 50 mM PBS buffer (pH 7.4) was added to individual wells of a black polystyrene, flat-bottomed clear 96-well plate, followed by TTS (25 μM) or 3 (25 μM) then cysteine (100 μM) or Na2S2 (25 μM). Samples were mixed by pipetting up and down and incubated in the dark at room temperature (rt) for 30 min. Next, CTAB (50 μM) was added to all wells followed by SSP4 (5 μM), and samples were mixed by pipetting up and down. Samples were then incubated in the dark at room temperature for another 30 min before being measured on a Molecular Devices SpectraMax iD3 Multi-Mode Microplate Reader (fluorescence mode; kinetics measurement type; emission 535 nm; excitation 485 nm; integration time […], low PMT sensitivity, attenuation 1, read height 1.00 mm; total run time: 12 hours; 25 cycles; interval: 0.5 hours). Data was graphed as a time dependent fluorescence response, with F0 as the SSP4 only condition. The fluorescence of Na2S2 over time was not represented in the line graph presented due to the compound's known instability. Data obtained from the 12 h time point including from Na2S2 was also represented in a bar graph for greater clarity. Results were expressed as mean±SEM (n=3).

T1 sequence (P46406 whole entry): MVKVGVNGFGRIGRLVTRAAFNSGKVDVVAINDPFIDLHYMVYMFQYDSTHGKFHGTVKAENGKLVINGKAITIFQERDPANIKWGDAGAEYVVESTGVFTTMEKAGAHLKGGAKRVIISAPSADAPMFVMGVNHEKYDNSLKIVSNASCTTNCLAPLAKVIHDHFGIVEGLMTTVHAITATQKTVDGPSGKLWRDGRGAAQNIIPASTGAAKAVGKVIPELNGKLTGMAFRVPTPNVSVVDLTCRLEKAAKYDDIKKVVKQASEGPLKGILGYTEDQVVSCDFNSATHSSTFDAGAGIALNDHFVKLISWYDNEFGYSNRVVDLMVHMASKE

GAPDH persulfidation signal compared with Na2S2 (GAPDH; TTS 1 mM + Na2S 1 mM vs Na2S2 1 mM, one-way ANOVA): significantly higher signals than Na2S2
GAPDH persulfidation by LC-MS/MS after HPE-IAM alkylation and trypsin digestion (GAPDH; TTS+Na2S-treated GAPDH): successful protein persulfidation
SSP4 fluorescence of persulfidated GAPDH (GAPDH; reduced GAPDH 100 μM treated with TTS 1 mM + Na2S 1 mM): strong fluorescence
SSP4 fluorescence of persulfidated GAPDH (GAPDH; reduced GAPDH 100 μM treated with the reagent only (1 mM)): did not give any notable fluorescence
Structure (SMILES): COC(=O)c1ccc(=S=O)sc1 [TTS, 2H-thiopyran-2-thione sulfine]
SSP4 fluorescence [1]: did not give any notable fluorescence

From US20260265055A1, “Sulfine-Based Compounds for Generating Hydrogen Persulfide” (Brown University, priority 2023, published 2026)
